Laboratory results taken from patent publication US8063225B2, “Tricyclic compound derivatives useful in the treatment of neoplastic diseases, inflammatory disorders and immunomodulatory disorders” (Chembridge Corporation, priority 2006, dated 2011).

Experiments:
IGF1R tyrosine kinase = molecular target: T1, IGF1R tyrosine kinase (Homo sapiens, UniProt P08069); assay: IGF1R tyrosine kinase assay (Kinase-Glo ATP depletion or PT66/PT100 AlphaScreen); conditions: biochemical tyrosine kinase assay
T1 construct: 6×His- or GST-tagged kinase domain fragments of the corresponding RTKs expressed in baculovirus system; host or cells: baculovirus system
T1 sequence (P08069 999-1274 limits assumed): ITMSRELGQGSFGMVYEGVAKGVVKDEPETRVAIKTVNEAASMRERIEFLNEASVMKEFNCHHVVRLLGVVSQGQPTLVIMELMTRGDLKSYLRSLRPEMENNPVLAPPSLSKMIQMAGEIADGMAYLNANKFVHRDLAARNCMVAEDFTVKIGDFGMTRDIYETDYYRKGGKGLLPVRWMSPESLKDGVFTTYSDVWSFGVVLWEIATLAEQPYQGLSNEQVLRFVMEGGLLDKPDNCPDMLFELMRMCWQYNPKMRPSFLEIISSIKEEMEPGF
Outline: (§1)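 Inhibition measured on recombinant RTK kinase domains phosphorylating poly(Glu-Tyr) at 10 μM ATP, either by ATP depletion luminescence (37 °C, 60 min) or by PT66/PT100 AlphaScreen with biotinylated substrate (RT, 30 min plus 60 min bead step). For Alk, InsR and Jak2, enzyme titrated to ≤30% ATP consumption; IC50 from nonlinear regression.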

InsR = molecular target: T2, InsR (Homo sapiens, UniProt P06213); assay: Tyrosine kinase assay (Kinase-Glo or AlphaScreen), InsR; conditions: biochemical tyrosine kinase assay
T2 construct: 6×His- or GST-tagged kinase domain fragments of the corresponding RTKs expressed in baculovirus system; host or cells: baculovirus system
T2 sequence (P06213 1023-1298 limits assumed, species assumed): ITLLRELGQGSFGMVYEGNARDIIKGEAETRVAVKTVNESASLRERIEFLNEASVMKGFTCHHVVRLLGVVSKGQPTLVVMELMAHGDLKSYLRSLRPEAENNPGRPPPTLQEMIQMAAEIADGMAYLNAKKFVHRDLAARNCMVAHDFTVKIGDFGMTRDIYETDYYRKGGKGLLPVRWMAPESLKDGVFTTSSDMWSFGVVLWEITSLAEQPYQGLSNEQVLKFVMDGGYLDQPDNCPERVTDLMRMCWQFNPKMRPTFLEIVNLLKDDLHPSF
Outline: as §1

Alk = molecular target: T3, Alk (Homo sapiens, UniProt Q9UM73); assay: Tyrosine kinase assay (Kinase-Glo or AlphaScreen), Alk; conditions: biochemical tyrosine kinase assay
T3 construct: 6×His- or GST-tagged kinase domain fragments of the corresponding RTKs expressed in baculovirus system; host or cells: baculovirus system
T3 sequence (Q9UM73 1116-1392 limits assumed, species assumed): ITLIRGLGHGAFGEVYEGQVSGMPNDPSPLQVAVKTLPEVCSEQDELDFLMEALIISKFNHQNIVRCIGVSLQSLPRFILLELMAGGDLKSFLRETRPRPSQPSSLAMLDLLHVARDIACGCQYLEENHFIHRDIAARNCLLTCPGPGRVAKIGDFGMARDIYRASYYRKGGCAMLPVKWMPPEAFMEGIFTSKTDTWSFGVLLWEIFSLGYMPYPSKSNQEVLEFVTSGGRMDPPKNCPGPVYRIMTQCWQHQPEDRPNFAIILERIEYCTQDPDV
Outline: as §1

TrkA = molecular target: T4, TrkA (Homo sapiens, UniProt P04629); assay: Tyrosine kinase assay (Kinase-Glo or AlphaScreen), TrkA; conditions: biochemical tyrosine kinase assay
T4 construct: 6×His- or GST-tagged kinase domain fragments of the corresponding RTKs expressed in baculovirus system; host or cells: baculovirus system
T4 sequence (P04629 510-781 limits assumed, species assumed): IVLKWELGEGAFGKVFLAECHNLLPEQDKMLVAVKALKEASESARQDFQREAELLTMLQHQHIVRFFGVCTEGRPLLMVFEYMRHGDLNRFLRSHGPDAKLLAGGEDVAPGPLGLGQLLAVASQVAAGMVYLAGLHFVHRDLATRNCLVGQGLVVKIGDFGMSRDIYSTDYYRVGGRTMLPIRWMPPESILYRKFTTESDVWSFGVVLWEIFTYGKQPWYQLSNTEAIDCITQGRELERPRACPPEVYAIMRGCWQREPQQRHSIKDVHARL
Experimental: To determine inhibition of several tyrosine kinases, such as IGF1R, InsR, Alk, TrkA and Jak2, kinase assays are conducted using either Kinase-Glo (Promega) or AlphaScreen (PerkinElmer) kinase assay platforms. The Kinase-Glo Luminescent Kinase Assay is a homogeneous method for measuring kinase activity by determining the amount of ATP remaining after a kinase reaction. The luminescent signal is proportional to the amount of ATP and inversely proportional to the amount of kinase activity. Tyrosine kinase PT66 AlphaScreen Assay is a high-sensitivity homogeneous, anti-phosphotyrosine antibody-mediated luminescent proximity method measuring, incorporation of phosphate in synthetic poly(Glu-Tyr) substrate. The kinase preparations used consist of purified recombinant, 6×His- or GST-tagged kinase domain fragments of the corresponding RTKs expressed in baculovirus system.
The IGF1R tyrosine kinase is assayed in Kinase-Glo ATP depletion assay using the synthetic polymer poly(Glu-Tyr, 4:1) (Sigma Chemicals) as a phosphoacceptor substrate. Each reaction mixture consists of a total volume of 10 μl and contains 40 ng of the enzyme, 5 μg of poly(Glu-Tyr), 10 μM of ATP and variable concentrations of test compounds. The mixtures also contain 50 mM Tris-HCl, pH 7.5; 5 mM MgCl2; 5 mM MnCl2; 2 mM DTT and 0.01% Tween 20. The reaction mixtures are incubated at 37° C. for 60 minutes and residual concentration of ATP in the mixture is determined by adding luciferase-containing Kinase-Glo (Promega) development reagent and counting luminescence levels using Fusion Universal Microplate Analyzer (PerkinElmer). Tested compounds are dissolved in dimethyl sulfoxide to a stock concentration of 10 mM and are typically evaluated in the assay at eight concentrations in 1 nM to 20 μM range, each in quadruplicate. […] IC50 values are derived by non-linear regression analysis using Prism 3.0 software (Graphpad Software). Other tyrosine kinases are assayed according to the same protocol after titrating amount of the enzyme to provide optimal signal-to-noise ratio and no more than 30% of total ATP consumption in the reaction conditions used.
The IGF1R tyrosine kinase is assayed in Phosphotyrosine (PT66 or PT 100) AlphaScreen chemiluminescent assay (PerkinElmer) according to the manufacturerer's recommendations. Each kinase reaction mixture consists of a total volume of 15 μl and contains 0.1-1 ng of the enzyme, 7 ng of biotinylated poly(Glu-Tyr) (Cis-Bio), 10 μM of ATP and variable concentrations of test compounds. The mixtures also contain 50 mM Tris-HCl, pH 7.5; 5 mM MgCl2; 5 mM MnCl2; 2 mM DTT and 0.01% Tween 20. The reaction mixtures are incubated at room temperature for 30 minutes. Ten (10) μl of the mixture of […] and donor beads (as supplied by the manufacturer) is then added to the reaction and the incubation is continued for an additional 60 minutes.

Jak2 = molecular target: T5, Jak2 (Homo sapiens, UniProt O60674); assay: Tyrosine kinase assay (Kinase-Glo or AlphaScreen), Jak2; conditions: biochemical tyrosine kinase assay
T5 construct: 6×His- or GST-tagged kinase domain fragments of the corresponding RTKs expressed in baculovirus system; host or cells: baculovirus system
T5 sequence (O60674 849-1124 limits assumed, species assumed): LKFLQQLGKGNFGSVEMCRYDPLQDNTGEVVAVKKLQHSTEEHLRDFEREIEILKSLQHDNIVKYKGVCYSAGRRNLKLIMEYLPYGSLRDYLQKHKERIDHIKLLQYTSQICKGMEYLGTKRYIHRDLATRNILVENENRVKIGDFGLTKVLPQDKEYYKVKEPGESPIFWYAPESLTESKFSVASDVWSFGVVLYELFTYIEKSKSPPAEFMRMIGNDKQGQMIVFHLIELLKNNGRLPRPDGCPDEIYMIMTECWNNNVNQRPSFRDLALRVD
Outline: as §1

H929 (multiple myeloma) = assay: Cell proliferation inhibition, Cell Titer-Glo, H929; assay type: cell-based; conditions: Homo sapiens, NCI-H929; cell proliferation assay, H929 cells
Outline: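 Cells seeded at 2500-5000 per well with serially diluted compound for typically 3 days. Viable cells measured by ATP luminescence (Cell Titer-Glo); IC50 from proliferation-inhibition curves.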

[1] = tested on: HEK293 (human normal embryonic kidney); assay: Cell proliferation inhibition, Cell Titer-Glo, HEK293; assay type: cell-based; conditions: cell proliferation assay, HEK293 cells, read-out: HEK 293 IC50
Experimental: IGF1R and other tyrosine kinase inhibitors can inhibit the proliferation of certain cancer cell lines indicating their possible therapeutic utility for treating the corresponding cancer types. Cancer cell lines of interest and control normal lines, including CHO, HEK293, BA/F3, MM1, H929, COLO205, PC3, DU145, MCF7, Panc1, ACHN, Hep G2, H460, K562, TT, U87-G, CAOV-3, SK-MEL5, Karpas 299, are plated in white, clear-bottomed 384-well cell culture plates at 2500-5000 cells per well and supplied with dilutions of tested compounds After a desired period of time (typically 3 days), the number of viable cells is quantitated by using Cell Titer-Glo Luminescent Cell Viability Assay (Promega), a cell proliferation assay system based on detection of total amount of ATP present as a measure of cell metabolic activity. The plated cells are mixed with the Cell Titer-Glo developing reagent and counted in a luminescence multiwell plate reader according to the standard manufacturer's protocol to generate IC50 curves for cell proliferation inhibition.
(§2) IGF1R and other tyrosine kinase inhibitors can inhibit the proliferation of certain cancer cell lines indicating their possible therapeutic utility for treating the corresponding cancer types. Cancer cell lines of interest and control normal lines, including CHO, HEK293, BA/F3, COLO205, PC3, DU145, MCF7, Panc1, ACHN, Hep G2, H460, K562, TT, U87-MG, CAOV-3, SK-MEL5, Karpas 299 and human multiple myeloma cell lines H929, MM1s, MM1r, UTMC2, CPM2, KMS11, My5, KMS12PE, My7, JJN3, KMS18, U266, SKMM2, RPMI-8226 are plated in white, clear-bottomed 384-well cell culture plates at 2500-5000 cells per well and supplied with dilutions of tested compounds After a desired period of time (typically 3 days), the number of viable cells is quantitated by using Cell Titer-Glo Luminescent Cell Viability Assay (Promega), a cell proliferation assay system based on detection of total amount of ATP present as a measure of cell metabolic activity. The plated cells are mixed with the Cell Titer-Glo developing reagent and counted in a luminescence multiwell plate reader according to the standard manufacturer's protocol to generate IC50 curves for cell proliferation inhibition. Results are typically reported as percent of growth (% viability =(OD72h(compound)−ODday0))/(OD72h(no compound)−ODday0). Alternatively, viable cells are quantitated by using the conventional colorimetric MTT assay. The MTT assay is based on the cleavage of the yellow tetrazolium salt MTT to purple formazan crystal by metabolic active cells. The formazan is then solubilized, and the concentration determined by optical density at 570 nm. The cells plated and incubated with a compound as described above are supplemented with the solution of MTT and incubated for 2-3 hours. The growth medium is removed and dimethyl sulfoxide is added into each well to dissolve the formazan. The absorbance is measured on an ELISA plate reader with a test wavelength of 570 nm and a background subtraction wavelength of 630 nm to obtain sample signal (OD570-OD630). […] The results are reported in terms of IC50 value for a particular compound and a cell line in the standard 3-day proliferation assay using Cell Titer-Glo. […] The results are reported in terms of IC50 value for a particular compound and a cell line in the standard 3-day proliferation assay using MTT assay.

K562 = assay: Cell proliferation inhibition, Cell Titer-Glo, K562; assay type: cell-based; conditions: Homo sapiens; cell proliferation assay, K562 cells
Outline: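 Proliferation inhibition in human K562 cells was assessed in a standard 3-day assay. Cells (2500-5000 per well) in 384-well white, clear-bottomed plates received serial compound dilutions, then Cell Titer-Glo reagent was added per the manufacturer's protocol. Luminescence reflecting ATP content of metabolically active cells was counted in a multiwell reader, and IC50 curves were generated.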

[2] = tested on: HEK293 (human normal embryonic kidney); assay: Cell proliferation inhibition, MTT assay, HEK293; assay type: cell-based; conditions: 72 h, HEK293 cells, 3-day proliferation, read-out: HEK IC50
Description: as §2

[3] = tested on: CHO (chinese hamster ovary); assay: Cell proliferation inhibition, MTT assay, CHO; assay type: cell-based; conditions: Cricetulus griseus, 72 h, CHO cells, 3-day proliferation
Description: as §2

H929 = assay: Cell proliferation inhibition, MTT assay, H929; assay type: cell-based; conditions: Homo sapiens, NCI-H929, 72 h, H929 multiple myeloma cells, 3-day proliferation
Description: as §2

MM1s = assay: Cell proliferation inhibition, MTT assay, MM1s; assay type: cell-based; conditions: Homo sapiens, MM1.S, 72 h, MM1S multiple myeloma cells, 3-day proliferation
Description: as §2

MM1r = assay: Cell proliferation inhibition, MTT assay, MM1r; assay type: cell-based; conditions: Homo sapiens, MM.1R, 72 h, MM1R multiple myeloma cells, 3-day proliferation
Description: as §2

UTMC2 = assay: Cell proliferation inhibition, MTT assay, UTMC2; assay type: cell-based; conditions: Homo sapiens, 72 h, UTMC2 multiple myeloma cells, 3-day proliferation
Description: as §2

CPM2 = assay: Cell proliferation inhibition, MTT assay, CPM2; assay type: cell-based; conditions: Homo sapiens, Multiple myeloma cell, 72 h, CPM2 multiple myeloma cells, 3-day proliferation
Description: as §2

KMS11 = assay: Cell proliferation inhibition, MTT assay, KMS11; assay type: cell-based; conditions: Homo sapiens, KMS-11, 72 h, KMS11 multiple myeloma cells, 3-day proliferation
Description: as §2

| IC50 (IGF1R tyrosine kinase) [nM] | IC50 (InsR) [nM] | IC50 (Alk) [nM] | IC50 (TrkA) [nM] | IC50 (Jak2) [nM] | IC50 (H929 (multiple myeloma)) [nM] | IC50 (K562) [nM] | IC50 (H929) [nM] | IC50 (MM1s) [nM] | IC50 (MM1r) [nM] | SMILES | IC50 [1] [nM] | IC50 [2] [nM] | IC50 [3] [nM] | IC50 (UTMC2) [nM] | IC50 (CPM2) [nM] | IC50 (KMS11) [nM] |
| --- | --- | --- | --- | --- | --- | --- | --- | --- | --- | --- | --- | --- | --- | --- | --- | --- |
| < 500 | < 500 | < 500 | < 500 | 500 to 5000 | 5000 to 15000 | > 15000 |  |  |  | CN1CCC(N2Cc3cc4nc(-c5c(NC[C@@H](O)c6cccc(Cl)c6)cc[nH]c5=O)[nH]c4cc3C2=O)CC1 [compound 16] | 5000 to 15000 |  |  |  |  |  |
| < 500 | < 500 | 500 to 5000 | < 500 | < 500 |  |  |  |  |  | Cc1c(Cl)cccc1OC[C@H](O)CNc1cc[nH]c(=O)c1-c1nc2cc3c(cc2[nH]1)C(=O)N(C1CCN(C)CC1)C3 [compound 133] |  |  |  |  |  |  |
|  |  |  |  |  |  |  | < 500 | < 500 | 500 to 1000 | CN1CCC(N2Cc3cc4[nH]c(-c5c(NCC(=O)COc6ccccc6Br)cc[nH]c5=O)nc4cc3C2=O)CC1 [drawing 841] |  | ≥ 20000 | ≥ 20000 | < 500 | 1000 to 5000 | 1000 to 5000 |
|  |  |  |  |  |  |  | 500 to 1000 | < 500 | 1000 to 5000 | CCc1cc2c(cc1OCC(=O)CNc1cc[nH]c(=O)c1-c1nc3cc4c(cc3[nH]1)C(=O)N(C1CCN(C)CC1)C4)OCO2 [drawing 842] |  | ≥ 20000 | ≥ 20000 | < 500 | 1000 to 5000 | 1000 to 5000 |
|  |  |  |  |  |  |  | 500 to 1000 | 500 to 1000 | 1000 to 5000 | COc1ccc(OCC(=O)CNc2cc[nH]c(=O)c2-c2nc3cc4c(cc3[nH]2)C(=O)N(C2CCN(C)CC2)C4)c(Cl)c1 [drawing 843] |  | ≥ 20000 | ≥ 20000 | < 500 | 1000 to 5000 | 1000 to 5000 |
